Test results as given in patent US11389449B2, “Treatment of metabolic syndrome with an sGC stimulator” (Cyclerion Therapeutics, Inc., priority 2017, dated 2022).

What was measured:
ZSF1 obese rats [1] = experiment: Oral glucose tolerance test (OGTT) and fasting glucose in ZSF1 rats at week 10; type: in vivo, rat; settings: enalapril 3 mpk
Description: Male ZSF1 rats (body weight 400-430 grams (lean control) and 500-605 grams (obese) at baseline) were used for this study. All animals were housed in a room under controlled conditions of temperature (72±8° F.), relative humidity of 30-70% and a 12-hour light-dark cycle (lights on at 6:00 AM and off at 6:00 PM) at a fully AAALAC accredited, USDA registered and OLAW assured laboratory animal research facility. All animals were allowed free access to rodent chow (Purina 5008+/−test articles) and water (+/−enalapril).
(§1) Blood and 24-hour urine samples were obtained from all animals at day 0 (15 weeks of age; prior to the initiation of enalapril treatment). Animals in Groups 3, 7, 8 and 9 were placed on drinking water containing enalapril and kept on Purina 5008 rodent chow (C13000). Animals in Group 1, 2, 4, 5 and 6 were kept on Purina 5008 rodent chow and drinking water. Ten days after the initiation of enalapril treatment, blood and 24-hour urine samples were collected from all animals. After day 10 blood and urine collections, animals in Groups 4, 5 and 6 received Compound I at 1, 3 and 10 mg/kg/day, respectively for 11 weeks. In addition to enalapril treatment, animals in Groups 7, 8 and 9 received Compound I at 1, 3 and 10 mg/kg/day, respectively for an additional 11 weeks.
(§2) 10 weeks after the initiation of Compound I treatment, animals (27 weeks of age) were fasted for 18 hours. Serum samples were collected for the measurement of fasting insulin levels. Serum insulin levels were determined using the Rat Insulin ELISA kit (Cat #ELR-Insulin, RayBiotech, Inc.)
For OGTT, animals were given glucose solution (50% Dextrose) at 2 g/kg via oral gavage. Blood samples were collected prior to oral glucose administration (0 minute) and 30, 60, 90, 120 and 180 minutes after administration. Blood glucose levels were measured using a standard blood glucose monitoring system (AlphaTRAK). The blood glucose reading at time 0 (prior to glucose administration) corresponds to the fasting glucose measurement.
(§3) The data are expressed as mean±SEM. […] One-tailed tests were used for comparison of variables. Statistical significance is indicated by P values less than 0.05.

ZSF1 obese rats [2] = experiment: ZSF1 rat study: serum clinical chemistry (cholesterol, triglycerides), body weight, clinical observations; type: in vivo; settings: ZSF1 obese rats; enalapril 3 mg/kg/day; Animal #8; 3 days after initiation
Text: as §1
Body weight and 24-hour water intake were obtained at least once every other week. 24-hour food intake was measured at baseline and week 8.
Plasma (for biomarker) and serum (for clinical chemistry analysis) samples were collected from all treatment groups at baseline, day 10, weeks 5 and 9 prior to placing the animals into the metabolic cages. Plasma samples were obtained from Groups 3-9 for measurement of compound exposure levels at weeks 5 and 11. Terminal plasma and serum samples were obtained at necropsy.
For serum samples, blood was collected in serum separator tubes, maintained at room temperature for at least 30 minutes and then centrifuged at 6000 rpm for 10 minutes. Serum samples were stored at −80° C. until analysis. Urine and serum samples were analyzed using the Randox Daytona Clinical Chemistry Analyzer. All measurements were performed in accordance with manufacturer's instructions.
Animal #8 (in Group 3, ZSF1—enalapril 3 mg/kg/day) was found dead 3 days after the initiation of enalapril treatment.

ZSF1 obese rats [3] = experiment: Fasting serum insulin in ZSF1 rats (Rat Insulin ELISA); type: in vivo; settings: week 10, enalapril 3 mpk
Text: as §1, §2, §3

CCOC(=O)[C@H](CCc1ccccc1)N[C@@H](C)C(=O)N1CCC[C@H]1C(=O)O [enalapril, reference compound]
Fasting Blood Glucose (0 minute) (ZSF1 obese rats [1]): 255 ± 13 mg/dL | OGTT Area Under Curve (AUC) (ZSF1 obese rats [1]): 84459 ± 1409 | OGTT Blood Glucose 120 minutes (ZSF1 obese rats [1]): 452 ± 10 mg/dL | OGTT Blood Glucose 180 minutes (ZSF1 obese rats [1]): 435 ± 9 mg/dL | clinical observation (ZSF1 obese rats [2]): found dead | Fasting Insulin (ZSF1 obese rats [3]): 11.4 ± 1.7 μIU/mL
